Assay results from patent publication US20260372303A1, “5-Fluoro-4-Imino-3-Methyl-1-Tosyl-3, 4-Dihydropyrimidin-2(1H) -One for Fungicide-Resistant Fungus” (priority 2022, published 2026).

Key:
[1] = system: Zymoseptoria tritici strain Zt 19-52; experiment: In planta preventive efficacy on wheat cv. Alixan against Zymoseptoria tritici strain Zt 19-52; type: in vivo; details: % of length of 2nd leaf blade, preventive 24 h
[2] = system: Zymoseptoria tritici strain Zt StA; experiment: In planta preventive efficacy on wheat cv. Alixan against Zymoseptoria tritici strain Zt StA (control strain, sensitive); type: in vivo; details: for Disease Severity Intensity: % of length of 2nd leaf blade, preventive 24 h; for AUDPC: control 781.6
Summary of the method: (§1)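 BBCH 12 wheat plants sprayed preventively, inoculated 24 h later with calibrated pycnospore suspension; 3 pots of 6 plants per condition, 20/17 °C, 16 h light. Necrosis length on second leaf scored at 15, 21 and 28 dpi; efficacy from trapezoidal AUDPC as % of untreated control.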

[3] = system: Zymoseptoria tritici strain Zt 99; experiment: In planta preventive efficacy on wheat cv. Alixan against Zymoseptoria tritici strain Zt 99; type: in vivo; details: for Disease Severity Intensity: % of length of 2nd leaf blade, preventive 24 h; for AUDPC: control 1352.9
Summary of the method: as §1

Z. tritici strains = experiment: In planta susceptibility of all Z. tritici strains pathogenic on wheat cv. ALIXAN (conclusions); type: in vivo, Zymoseptoria tritici
Experimental: Winter wheat plants cv. Alixan (Limagrain) at the BBCH 12 growth stage were treated preventively with sterile distilled water (control), ADF-16, penthiopyrad, metconazole or tebuconazole at the rates described in Table 2 with a hand sprayer at 2 bars.
After treatment, wheat plants were left to dry at room temperature for 1 hour and then placed in a climatic chamber: temperature of 24 °C day/18 °C night-photoperiod of 16 h light/8 h dark and a relative humidity of 65%.
Untreated or treated whole wheat plants were inoculated 24-hours post-treatment with a calibrated pycnospore suspension of Z. tritici strains Zt StA, Zt 61, Zt 99, Zt 20, Zt 19-52, and Zt 38-02. Three replicates (pots) of 6 wheat plants each were used for each condition tested. […]
Disease assessments were carried out at 15 days post inoculation (dpi), 21 dpi and 28 dpi by measuring the length of the necrosis on the second leaf blade. The intensity of infection was then determined as a percentage of the total length of 2nd leaf blade.
The fungicide efficacies were determined from the Area Under the Disease Progress Curve (AUDPC) values and expressed as a percentage of the untreated control.
The AUDPC is a quantitative measure of disease intensity over time. […] The AUDPC is determined with the following formula by adding all of the trapezoids: […]

[4] = system: Zymoseptoria tritici strain Zt 38-02; experiment: In planta preventive efficacy on wheat cv. Alixan against Zymoseptoria tritici strain Zt 38-02; type: in vivo; details: for Disease Severity Intensity: % of length of 2nd leaf blade, preventive 24 h; for AUDPC: control 1261.4
Summary of the method: as §1

[5] = system: Zymoseptoria tritici strain Zt 61; experiment: In planta preventive efficacy on wheat cv. Alixan against Zymoseptoria tritici strain Zt 61; type: in vivo; details: for Disease Severity Intensity: % of length of 2nd leaf blade, preventive 24 h; for AUDPC: control 1194.9
Summary of the method: as §1

[6] = system: Zymoseptoria tritici strain Zt 20; experiment: In planta preventive efficacy on wheat cv. Alixan against Zymoseptoria tritici strain Zt 20; type: in vivo; details: % of length of 2nd leaf blade, preventive 24 h
Summary of the method: as §1

[7] = 15 dpi, rate N (g a.i./ha): ADF-16 100, penthiopyrad 200, metconazole 90, tebuconazole 250, control also no disease
[8] = 15 dpi, rate N/2.5 (g a.i./ha): ADF-16 40, penthiopyrad 80, metconazole 36, tebuconazole 100, control also no disease
[9] = rate N (g a.i./ha): ADF-16 100, penthiopyrad 200, metconazole 90, tebuconazole 250
[10] = rate N/2.5 (g a.i./ha): ADF-16 40, penthiopyrad 80, metconazole 36, tebuconazole 100

Cc1ccc(S(=O)(=O)n2cc(F)c(=N)n(C)c2=O)cc1 [ADF-16, 5-fluoro-4-imino-3-methyl-1-tosyl-3,4-dihydropyrimidin-2 (1H)-one]
Disease Severity Intensity ([1]; 15 dpi, rate N (g a.i./ha): ADF-16 100, penthiopyrad 200, metconazole 90, tebuconazole 250, control 22.0): 0.0 +/− 0.0b % | Disease Severity Intensity ([1]; 15 dpi, rate N/2.5 (g a.i./ha): ADF-16 40, penthiopyrad 80, metconazole 36, tebuconazole 100, control 22.0): 0.0 +/− 0.0b % | Disease Severity Intensity ([1]; 21 dpi, rate N (g a.i./ha): ADF-16 100, penthiopyrad 200, metconazole 90, tebuconazole 250, control 81.7): 0.4 +/− 0.4c % | Disease Severity Intensity ([1]; 21 dpi, rate N/2.5 (g a.i./ha): ADF-16 40, penthiopyrad 80, metconazole 36, tebuconazole 100, control 81.7): 0.3 +/− 0.2c % | Disease Severity Intensity ([1]; 28 dpi, rate N (g a.i./ha): ADF-16 100, penthiopyrad 200, metconazole 90, tebuconazole 250, control 91.0): 2.0 +/− 1.4ef % | Disease Severity Intensity ([1]; 28 dpi, rate N/2.5 (g a.i./ha): ADF-16 40, penthiopyrad 80, metconazole 36, tebuconazole 100, control 91.0): 4.4 +/− 1.7de % | Disease Severity Intensity [2, 7]: No disease | Disease Severity Intensity [2, 8]: No disease | Disease Severity Intensity ([2]; 21 dpi, rate N (g a.i./ha): ADF-16 100, penthiopyrad 200, metconazole 90, tebuconazole 250, control 36.5): 0.0 +/− 0.0b % | Disease Severity Intensity ([2]; 21 dpi, rate N/2.5 (g a.i./ha): ADF-16 40, penthiopyrad 80, metconazole 36, tebuconazole 100, control 36.5): 0.0 +/− 0.0b % | Disease Severity Intensity ([2]; 28 dpi, rate N (g a.i./ha): ADF-16 100, penthiopyrad 200, metconazole 90, tebuconazole 250, control 77.4): 0.0 +/− 0.0b % | Disease Severity Intensity ([2]; 28 dpi, rate N/2.5 (g a.i./ha): ADF-16 40, penthiopyrad 80, metconazole 36, tebuconazole 100, control 77.4): 0.0 +/− 0.0b % | Efficacy (from AUDPC, percentage of the untreated control) [2, 9]: 100% | AUDPC [2, 9]: 0.0 +/− 0.0b | Efficacy (from AUDPC, percentage of the untreated control) [2, 10]: 100% | AUDPC [2, 10]: 0.0 +/− 0.0b | Disease Severity Intensity ([3]; 15 dpi, rate N (g a.i./ha): ADF-16 100, penthiopyrad 200, metconazole 90, tebuconazole 250, control 47.9): 0.0 +/− 0.0d % | Disease Severity Intensity ([3]; 15 dpi, rate N/2.5 (g a.i./ha): ADF-16 40, penthiopyrad 80, metconazole 36, tebuconazole 100, control 47.9): 0.0 +/− 0.0d % | Disease Severity Intensity ([3]; 21 dpi, rate N (g a.i./ha): ADF-16 100, penthiopyrad 200, metconazole 90, tebuconazole 250, control 81.0): 0.1 +/− 0.1f % | Disease Severity Intensity ([3]; 21 dpi, rate N/2.5 (g a.i./ha): ADF-16 40, penthiopyrad 80, metconazole 36, tebuconazole 100, control 81.0): 0.0 +/− 0.0f % | Disease Severity Intensity ([3]; 28 dpi, rate N (g a.i./ha): ADF-16 100, penthiopyrad 200, metconazole 90, tebuconazole 250, control 92.2): 0.1 +/− 0.1e % | Disease Severity Intensity ([3]; 28 dpi, rate N/2.5 (g a.i./ha): ADF-16 40, penthiopyrad 80, metconazole 36, tebuconazole 100, control 92.2): 1.7 +/− 0.8e % | Efficacy (from AUDPC, percentage of the untreated control) [3, 9]: 99.9% | AUDPC [3, 9]: 1.2 ± 0.3 g | Efficacy (from AUDPC, percentage of the untreated control) [3, 10]: 99.6% | AUDPC [3, 10]: 5.9 ± 0.4 g | control in planta of Z. tritici strains (Z. tritici strains; 8 strains pathogenic on wheat cv. ALIXAN, 2 doses tested (40 and 100 g a.i./ha)): perfectly controlled | effectiveness (Z. tritici strains; full dose of 100 g a.i./ha, across strains): more than 99% | Disease Severity Intensity ([4]; 15 dpi, rate N (g a.i./ha): ADF-16 100, penthiopyrad 200, metconazole 90, tebuconazole 250, control 36.0): 0.0 +/− 0.0b % | Disease Severity Intensity ([4]; 15 dpi, rate N/2.5 (g a.i./ha): ADF-16 40, penthiopyrad 80, metconazole 36, tebuconazole 100, control 36.0): 0.0 +/− 0.0b % | Disease Severity Intensity ([4]; 21 dpi, rate N (g a.i./ha): ADF-16 100, penthiopyrad 200, metconazole 90, tebuconazole 250, control 84.3): 0.0 +/− 0.0f^ % | Disease Severity Intensity ([4]; 21 dpi, rate N/2.5 (g a.i./ha): ADF-16 40, penthiopyrad 80, metconazole 36, tebuconazole 100, control 84.3): 0.0 +/− 0.0f^ % | Disease Severity Intensity ([4]; 28 dpi, rate N (g a.i./ha): ADF-16 100, penthiopyrad 200, metconazole 90, tebuconazole 250, control 95.7): 0.4 +/− 0.4e % | Disease Severity Intensity ([4]; 28 dpi, rate N/2.5 (g a.i./ha): ADF-16 40, penthiopyrad 80, metconazole 36, tebuconazole 100, control 95.7): 0.0 +/− 0.0e % | Efficacy (from AUDPC, percentage of the untreated control) [4, 9]: 99.9% | AUDPC [4, 9]: 1.3 +/− 0.9e | Efficacy (from AUDPC, percentage of the untreated control) [4, 10]: 100% | AUDPC [4, 10]: 0.0 +/− 0.0e | Disease Severity Intensity [5, 7]: No disease | Disease Severity Intensity [5, 8]: No disease | Disease Severity Intensity ([5]; 21 dpi, rate N (g a.i./ha): ADF-16 100, penthiopyrad 200, metconazole 90, tebuconazole 250, control 63.3): 0.0 +/− 0.0d % | Disease Severity Intensity ([5]; 21 dpi, rate N/2.5 (g a.i./ha): ADF-16 40, penthiopyrad 80, metconazole 36, tebuconazole 100, control 63.3): 3.2 +/− 1.1d % | Disease Severity Intensity ([5]; 28 dpi, rate N (g a.i./ha): ADF-16 100, penthiopyrad 200, metconazole 90, tebuconazole 250, control 88.1): 1.5 +/− 0.3g % | Disease Severity Intensity ([5]; 28 dpi, rate N/2.5 (g a.i./ha): ADF-16 40, penthiopyrad 80, metconazole 36, tebuconazole 100, control 88.1): 14.8 +/− 4.0e % | Efficacy (from AUDPC, percentage of the untreated control) [5, 9]: 99.6% | AUDPC [5, 9]: 5.4 ± 1.2 days | Efficacy (from AUDPC, percentage of the untreated control) [5, 10]: 91.9% | AUDPC [5, 10]: 97.2 ± 5.0 days | Disease Severity Intensity [6, 7]: No disease | Disease Severity Intensity [6, 8]: No disease | Disease Severity Intensity ([6]; 21 dpi, rate N (g a.i./ha): ADF-16 100, penthiopyrad 200, metconazole 90, tebuconazole 250, control 77.2): 0.0 +/− 0.0e % | Disease Severity Intensity ([6]; 21 dpi, rate N/2.5 (g a.i./ha): ADF-16 40, penthiopyrad 80, metconazole 36, tebuconazole 100, control 77.2): 0.0 +/− 0.0e % | Disease Severity Intensity ([6]; 28 dpi, rate N (g a.i./ha): ADF-16 100, penthiopyrad 200, metconazole 90, tebuconazole 250, control 95.5): 0.0 +/− 0.0g % | Disease Severity Intensity ([6]; 28 dpi, rate N/2.5 (g a.i./ha): ADF-16 40, penthiopyrad 80, metconazole 36, tebuconazole 100, control 95.5): 7.3 +/− 1.9f %
